Where two headings read alike, the source gives them in different places.
Legend:
Experiment in all cases: Cell proliferation IC50 (Cell Titer Glo)
Assay type in all cases: cell-based
[1] = system: UACC-62; conditions: Homo sapiens, read-out: IC50 cell proliferation
Method: (§1) IC50 Cell proliferation measurements. Cell proliferation was assessed in the 41 tumor cell lines set forth in Table 2 after 4 days of continuous exposure to either the ERK1/2 inhibitor, compound a or the MEK inhibitor compound b (PD0325901) using Promega Cell Titer Glo reagent (Promega Corp, Madison, Wis.). Promega's CellTiter-Glo™ Luminescent Cell Viability Assay is a sensitive method for assaying cell proliferation using a stable form of luciferase to measure ATP as an indicator of viable cells. This reagent allows a homogeneous method of determining cell number by quantitation of ATP. The luciferase luminescent signal produced is proportional to the number of viable cells present in culture.
(§2) A 1000× compound dose response curve, containing 8 dilutions of each compound, was prepared on a 96-well plate. Compounds were diluted in 100% DMSO to the following (1000×) concentrations: compound b: 1000 μM, 333 μM, 111 μM, 37 μM, 12 μM, 4.1 μM, 1.4 μM and 0.5 μM; compound a: 3000 μM, 1000 μM, 333 μM, 111 μM, 37 μM, 12 μM, 4.1 μM and 1.4 μM. This compound source plate was sealed and kept frozen between uses.
(§3) Cells were grown in RPMI 1640 medium supplemented with 10% Fetal Bovine Serum, 2 mM Glutamine and non-essential amino acids or DMEM/F12 Media containing the same supplements. On day zero, cells were trypsinized, counted and plated into wells of a 96-well Wallac TC Isoplate (Perkin-Elmer Wallac, Gaithersburg, Md.) at a density of 1500-2000 cells per well in 50 μl of complete media. An additional 6-8 replicate well of the cells at the same density were plated on a separate Wallac TC Isoplate. This plate was developed on day 1 to determine the cell-growth baseline.
(§4) On day 1 of treatment, compound was diluted to 2× in media and immediately added to the cells as follows: one ml of media was added to each well of a deep-well 96-well plate and 2 μl of 1000× compound was added with mixing to make 2× compound in media. 50 μl of the media containing 2× compound was added to the cell plates in duplicate points so the final concentrations for each well were as outlined in Table 1. The plates were then returned to a 37° C. incubator and left undisturbed for 4 days. The day 1 (baseline) plates were developed by first adding 50 μl media (without compound) to bring the volume in each well to 100 μl, then adding 100 μl of Cell Titer Glo reagent (as below).
(§5) After four days of treatment, the plates were developed with Cell Titer Glo (CTG) reagent (Promega Corp.; Madison, Wis.). Reagent was reconstituted as described in the product insert. 100 μl of reagent was added to all treatment and control wells and the plates were gently shaken for 5 minutes then incubated an additional 5 minutes before reading in an Analyst AD (Molecular Devices Corporation; Sunnyvale, Calif.) using the Luminescence settings.
(§6) Data was analyzed in Excel using XLfit 4.2, fit model #205 (Dose Response One Site)

[2] = system: Jijoye; conditions: Homo sapiens, 96 h, read-out: IC50 cell proliferation
Method: as §1, §2, §3, §4, §5, §6

[3] = system: BHT 101; conditions: Homo sapiens, read-out: IC50 cell proliferation
Method: as §1, §2, §3, §4, §5, §6

[4] = system: A673; conditions: Homo sapiens, read-out: IC50 cell proliferation
Method: as §1, §2, §3, §4, §5, §6

[5] = system: 8505C; conditions: Homo sapiens, 96 h, read-out: IC50 cell proliferation
Method: as §1, §2, §3, §4, §5, §6

[6] = system: KG-1; conditions: Homo sapiens, read-out: IC50 cell proliferation
Method: as §1, §2, §3, §4, §5, §6

[7] = system: SK-Mel-5; conditions: Homo sapiens, read-out: IC50 cell proliferation
Method: as §1, §2, §3, §4, §5, §6

[8] = system: A204; conditions: Homo sapiens, read-out: IC50 cell proliferation
Method: as §1, §2, §3, §4, §5, §6

[9] = system: N-87; conditions: Homo sapiens, 96 h, read-out: IC50 cell proliferation
Method: as §1, §2, §3, §4, §5, §6

[10] = system: Daudi; conditions: Homo sapiens, 96 h, read-out: IC50 cell proliferation
Method: as §1, §2, §3, §4, §5, §6

[11] = system: SK-Mel-28; conditions: Homo sapiens, read-out: IC50 cell proliferation
Method: as §1, §2, §3, §4, §5, §6

[12] = system: SK-Mel-31; conditions: Homo sapiens, 96 h, read-out: IC50 cell proliferation
Method: as §1, §2, §3, §4, §5, §6

[13] = system: LOX; conditions: Homo sapiens, 96 h, read-out: IC50 cell proliferation
Method: as §1, §2, §3, §4, §5, §6

[14] = system: BxPc-3; conditions: Homo sapiens, read-out: IC50 cell proliferation
Method: as §1, §2, §3, §4, §5, §6

[15] = system: Colo-205; conditions: Homo sapiens, read-out: IC50 cell proliferation
Method: as §1, §2, §3, §4, §5, §6

[16] = system: A375; conditions: Homo sapiens, A-375, 96 h, read-out: IC50 cell proliferation
Method: as §1, §2, §3, §4, §5, §6

`O=C(Nc1ccc2[nH]nc(-c3ccncc3)c2c1)C1CCN(CC(=O)N2CCN(c3ccc(-c4ncccn4)cc3)CC2)C1` (centres unmarked) [cpd. a] gave an IC50 ([1]; 96 h, UACC-62, Melanoma, BRAF V600E Homozygous, 4 days continuous exposure) of 30 nM, an IC50 ([2]; Jijoye, Leukemia, BRAF V600V Wild type, 4 days continuous exposure) of over 3000 nM and an IC50 ([3]; 96 h, BHT 101, Thyroid, BRAF V600E Heterozygous, 4 days continuous exposure) of 300 nM. For the same molecule, the IC50 ([4]; 96 h, A673, Rhabdomyosarcoma, BRAF V600E Heterozygous, 4 days continuous exposure) was over 3000 nM, the IC50 ([5]; Thyroid, BRAF V600E Homozygous, 4 days continuous exposure) was 50 nM and the IC50 ([6]; 96 h, KG-1, Leukemia, BRAF V600V Wild type, 4 days continuous exposure) was 900 nM. For the same molecule, the IC50 ([7]; 96 h, SK-Mel-5, Melanoma, BRAF V600E Heterozygous, 4 days continuous exposure) was 66 nM, the IC50 ([8]; 96 h, A204, Rhabdomyosarcoma, BRAF V600V Wild type, 4 days continuous exposure) was over 3000 nM and the IC50 ([9]; N-87, Gastric, BRAF V600V Wild type, 4 days continuous exposure) was 307 nM. The IC50 ([10]; Leukemia, BRAF V600V Wild type, 4 days continuous exposure) was over 3000 nM, the IC50 ([11]; 96 h, SK-Mel-28, Melanoma, BRAF V600E Homozygous, 4 days continuous exposure) was 85 nM and the IC50 ([12]; SK-Mel-31, Melanoma, BRAF V600E Heterozygous, 4 days continuous exposure) was 150 nM. For the same molecule, the IC50 ([13]; Melanoma, BRAF V600E Homozygous, 4 days continuous exposure) was 100 nM, the IC50 ([14]; 96 h, BxPc-3, Pancreas, BRAF V600V Wild type, 4 days continuous exposure) was 184 nM and the IC50 ([15]; 96 h, Colo-205, Colon, BRAF V600E Homozygous, 4 days continuous exposure) was 36 nM. The IC50 ([16]; A375, Melanoma, BRAF V600E Homozygous, 4 days continuous exposure) was 75 nM.

With `O=C(NOC[C@H](O)CO)c1ccc(F)c(F)c1Nc1ccc(I)cc1F` [cpd. b, PD0325901] the IC50 ([1]; UACC-62, 96 h) was 5 nM, the IC50 [2] was 1000 nM and the IC50 ([3]; BHT-101, 96 h) was 10 nM. For the same molecule, the IC50 ([4]; A673, 96 h) was 1000 nM, the IC50 [5] was 10 nM and the IC50 ([6]; KG-1, 96 h) was 40 nM. It also gave an IC50 ([7]; SK-MEL-5, 96 h) of 8 nM, an IC50 ([8]; A204, 96 h) of 1000 nM and an IC50 [9] of 64 nM. For the same molecule, the IC50 [10] was 1000 nM, the IC50 ([11]; SK-MEL-28, 96 h) was 10 nM and the IC50 [12] was 18 nM. For the same molecule, the IC50 [13] was 57 nM, the IC50 ([14]; BXPC-3, 96 h) was 119 nM and the IC50 ([15]; COLO 205, 96 h) was 5 nM. It also gave an IC50 [16] of 5 nM.
